According to patent publication US20260373283A1, “LIPID NANOPARTICLES AND METHODS OF USING THE SAME FOR TREATING CELL PROLIFERATIVE DISEASES AND DISORDERS” (Northwestern University, priority 2022, published 2026):

Legend:
CT-2A glioma [1] = test: survival with Stupp treatment (RT plus TMZ); type: in vivo, mouse; conditions: RT+TMZ (3 Gy×3; TMZ 50 mg/kg×3 i.p.); control 27.5 days
Procedure: FIG. 15. B-LNP treatment improves antitumor effects of RT plus concomitant adjuvant TMZ in GBM-bearing mice. Survival curves of C57 mice received intracranial implantation of 5×10^4 CT-2A cells and two administrations of saline, B-LNP/diABZI (0.25 mg/kg diABZI), or a combination of free diABZI and therapeutic antibodies (αPD-L1+αCD47) (referred to as cocktails) through implanted cannula. Selected groups of mice also received RT (3 Gy×3) plus TMZ through intraperitoneal injection (50 mg/kg×3). n=7-10 mice per group. **, p<0.01; determined by Log-rank test for groups with proportional hazards and Renyi statistics for groups with crossing hazards. p values were adjusted by Bonferroni correction.
In vivo B-LNP/diABZI combined with Stupp treatment. C57BL/6 mice with intracranially implanted CT-2A (5×10^4 cells per mouse) were randomly grouped and received a daily dose of brain-focused irradiation at 3 Gy and TMZ at 50 mg per kg intraperitoneally for three consecutive days starting on the seventh day after tumor cell implantation. Certain groups of mice also received B-LNP/diABZI (0.25 mg diABZI per kg) or a combination of free diABZI and therapeutic antibodies (αPD-L1+αCD47) on the ninth and thirteenth day after tumor implantation through intracranially implanted cannula. All mice were followed for their survival following outlined endpoint protocols.

T cells = test: cytotoxicity to T cells by Annexin V staining; type: cell-based, mouse; conditions: 200 nM, 48 h
Procedure: (§1) BMDM, bone marrow-derived macrophage. […] FIG. 10E, Cytotoxicity of diABZI to T cells was tested by Annexin V staining using flow cytometry 48 h after treatment with diABZI at 200 nM.
(§2) In vitro analysis of diABZI effects on TAMC and T cell. In vitro generated TAMCs (1×10^6 cells/well) in 6-well plate were treated with diABZI at 200 nM. After 6 h of treatment, cells were washed and collected for RNA isolation using the RNEasy Plus Mini Kit (Qiagen). Total RNA was quantified by Nanodrop (Thermo Scientific), and cDNA was synthesized using the iScript cDNA synthesis kit (Bio-Rad). Gene expression was analyzed by quantitative PCR analysis (Bio-Rad). Alternatively, flow cytometric analysis was performed 24 h after treatment. To determine the cytotoxicity of diABZI to T cells, T cells were isolated using mouse T cell isolation kit (STEMCELL Technologies) and seeded at 2×10^5 cells/well in 96-well U bottom plates with the addition of Dynabeads mouse T cell activator CD3/CD28 (Fisher) and IL-2 (PeproTech) at 50 U/ml. Cells were treated with diABZI at 200 nM for 48 h and collected for annexin V assay (BioLegend) using flow cytometry.

TAMCs [2] = test: ARG1, CD206, CD86 expression in TAMCs by flow cytometry; type: cell-based, mouse; conditions: 24 h post-treatment
Procedure: as §1, §2

TAMCs [3] = test: pro-inflammatory gene expression in TAMCs by qPCR; type: cell-based, mouse; conditions: diABZI 200 nM, 6 h
Procedure: as §2

CT-2A glioma [4] = test: survival, CT-2A-bearing mice, systemic delivery with RT; type: in vivo, mouse; conditions: i.v. 2.5 mg/kg diABZI with fractionated RT
Procedure: FIGS. 6A-6F. Systemic nanoparticle delivery of diABZI potentiates anti-glioma effects of RT. FIGS. 6A-6E, C57 mice received intracranial implantation of 7.5×10^4 CT-2A cells and three administrations of saline, free diABZI, or P-LNP/diABZI (2.5 mg/kg diABZI) through intravenous injections. Selected groups of mice received RT (3 Gy×3) as monotherapy or combination therapy. FIG. 6A, Survival curves of CT-2A-bearing C57 mice received different treatments. n=6-7 mice per group. Survival curves were compared using Log-rank test for those with proportional hazards and Renyi statistics for those with crossing hazards with p values adjusted by Bonferroni correction. […] Tumor burden in control and LTS mice were evaluated through H&E staining. FIG. 6C, 100 d post-rechallenge, freshly dissected brains from LTS, age-matched tumor-bearing mice, and age-matched non-tumor control mice were analyzed by flow cytometry for immune composition and CD8^+ T cell phenotypes. Data are represented as mean±SEM; n=5. *, p<0.05; **, p<0.01; determined by Student's t-test. […] FIG. 6D, Histology of the brains was evaluated by H. E. staining. […] FIG. 6E, Freshly dissected brains were analyzed by flow cytometry for immune composition, TAMC, and CD8^+ T cell phenotypes. Data are represented as mean±SEM; n=5. **, p<0.01; ***, p<0.001; ****, p<0.0001; determined by Student's t-test. […]

[5] = test system: CD8+ T cells in CT-2A tumors; test: T cell infiltration to brain tumors after systemic delivery; type: in vivo, mouse; conditions: i.v. 2.5 mg/kg diABZI with fractionated RT
Procedure: FIG. 16. Systemic nanoparticle delivery of diABZI enhances T cell infiltration to brain tumors. C57 mice received intracranial implantation of 7.5×10^4 CT-2A cells, RT (3 Gy×3), and two administrations of saline, free diABZI, or P-LNP/diABZI (2.5 mg/kg diABZI) through intravenous injections. Freshly dissected brains were analyzed by flow cytometry for T cell infiltration. Data are represented as mean±SEM; n=5. *, p<0.05; **, p<0.01; determined by determined by one-way ANOVA with Tukey's multiple comparisons test.
In vivo nanoparticle treatment through systemic delivery. C57BL/6 mice with intracranially implanted CT-2A (7.5×10^4 cells per mouse) were randomly grouped and treated with saline or P-LNP/diABZI (2.5 mg diABZI per kg) through intravenous administration on the ninth, fourteenth, and nineteenth day after tumor implantation. Selected groups of mice also received brain-focused radiotherapy for three consecutive days starting on the sixth day post-tumor implantation. […] Tumor burden was analyzed by hematoxylin and eosin (H&E) staining. Therapeutic effects of P-LNP/diABZI was similarly evaluated in mice implanted with PF8 cells (7.5×10^4 cells per mouse) and received RT and intravenous administrations of saline or P-LNP/diABZI (2.5 mg diABZI per kg) on the eighth and thirteenth day after tumor implantation.

SMILES	median survival (CT-2A glioma [1]) [days]	cytotoxicity to T cells (T cells)	ARG1 and CD206 in TAMCs (TAMCs [2])	CD86 in TAMCs (TAMCs [2])	expression of pro-inflammatory genes in TAMCs (type I IFNs, CCL5, CXCL10) (TAMCs [3])	animal survival in CT-2A glioma model (CT-2A glioma [4])	CD8+ T cell tumor infiltration [5]
Cn1nnc2c(C(N)=O)ncn2c1=O [TMZ, temozolomide]	36						
CCn1nc(C)cc1C(=O)Nc1nc2cc(C(N)=O)cc(OC)c2n1C/C=C/Cn1c(NC(=O)c2cc(C)nn2CC)nc2cc(C(N)=O)cc(OCCCN3CCOCC3)c21 [diABZI]		causes cytotoxicity to T cells	reduced levels of immunosuppressive factors ARG1 and CD206	higher levels of activation factor CD86	dramatically increased expression of pro-inflammatory genes in TAMCs	not free drugs, led to a dramatically enhanced CD8^+ T cell tumor infiltration (FIG. 16) and animal survival	not free drugs, led to a dramatically enhanced CD8^+ T cell tumor infiltration
